Where two headings read alike, the source gives them in different places.
What was measured:
[1] = target: T1, norepinephrine (NE) uptake (Rattus norvegicus, UniProt Q63380); test: Inhibition of synaptosomal uptake of 14C-l-norepinephrine in vitro; format: biochemical, rats; details: for IC50: 100 nM ¹⁴C-NE, 37°C for 5 min, read-out: IC₅₀(nM) NE; for inhibition at 1 µM: read-out: percent inhibition at 1000 nM (NE)
T1 construct: Crude synaptosomal preparations were isolated after differential centrifugation; from tissue; host or cells: rat cerebral cortex, crude synaptosomes
Procedure: (§1) This general procedure is set forth by Wong et al., in Drug Development Research 6:397-403 (1985).
(§2) Male Sprague-Dawley rats (110-150 g) from Harlan Industries (Cumberland, IN) were fed a Purina Chow ad libitum for at least 3 days before being used in the studies. Rats were killed by decapitation. Whole brains were removed and dissected. Cerebral cortex was homogenized in 9 volumes of a medium containing 0.32 M sucrose and 10 mM glucose. Crude synaptosomal preparations were isolated after differential centrifugation at 1,000 g for 10 min. and 17,000 g for 28 min. The final pellets were suspended in the same medium and kept in ice until use within the same day.
(§3) Synaptosomal uptake of ³H-serotonin(³H-5-hydroxytryptamine, ³H-5HT) and ¹⁴C-ℓ-norepinephrine (¹⁴C-NE) was determined as follows. Cortical synaptosomes (equivalent to 1 mg of protein) were incubated at 37°C for 5 min in 1 ml of Krebs-bicarbonate medium containing also 10 mM glucose, 0.1 mM iproniazid, 1 mM ascorbic acid, 0.17 mM EDTA, 50nM, ³H-5HT and 100 nM ¹⁴C-NE. The reaction mixture was immediately diluted with 2 ml of ice-chilled Krebs-bicarbonate buffer and filtered under vacuum with a cell harvester (Brandel, Gaithersburg, MD). Filters were rinsed twice with approximately 5 ml of ice-chilled 0.9% saline and were transferred to a counting vial containing 10 ml of scintillation fluid (PCS, Amersham, Arlington Heights, IL). Radioactivity was measured by a liquid scintillation spectrophotometer. Accumulation of ³H-5HT and ¹⁴C-NE at 4°C represented the background and was subtracted from all samples.
(§4) The results of the evaluation of various compounds of the present invention are set forth below in Table I. In the Table, column 1 identifies the Example number of the compounds evaluated, and columns 2 and 3 provide the concentration of the test compound at 10⁻⁹M (nM) needed to inhibit 50% of serotonin (5HT) or norepinephrine, respectively, and is indicated in the Table as IC₅₀. The numbers in parentheses represent percent inhibition at 1000 nM.

[2] = target: T2, serotonin (5HT) uptake (Rattus norvegicus, UniProt P31652); test: Inhibition of synaptosomal uptake of 3H-serotonin in vitro; format: biochemical, rats; details: for inhibition at 1 µM: 1000 nM test compound, number in parentheses, read-out: percent inhibition at 1000 nM (5HT)
T2 construct: Crude synaptosomal preparations were isolated after differential centrifugation; from tissue; host or cells: rat cerebral cortex, crude synaptosomes
Procedure: as §1, §2, §3, §4

[3] = rat cerebral cortex synaptosomes
[4] = 1000 nM test compound, number in parentheses, rat cerebral cortex synaptosomes

T2 sequence (P31652 whole entry): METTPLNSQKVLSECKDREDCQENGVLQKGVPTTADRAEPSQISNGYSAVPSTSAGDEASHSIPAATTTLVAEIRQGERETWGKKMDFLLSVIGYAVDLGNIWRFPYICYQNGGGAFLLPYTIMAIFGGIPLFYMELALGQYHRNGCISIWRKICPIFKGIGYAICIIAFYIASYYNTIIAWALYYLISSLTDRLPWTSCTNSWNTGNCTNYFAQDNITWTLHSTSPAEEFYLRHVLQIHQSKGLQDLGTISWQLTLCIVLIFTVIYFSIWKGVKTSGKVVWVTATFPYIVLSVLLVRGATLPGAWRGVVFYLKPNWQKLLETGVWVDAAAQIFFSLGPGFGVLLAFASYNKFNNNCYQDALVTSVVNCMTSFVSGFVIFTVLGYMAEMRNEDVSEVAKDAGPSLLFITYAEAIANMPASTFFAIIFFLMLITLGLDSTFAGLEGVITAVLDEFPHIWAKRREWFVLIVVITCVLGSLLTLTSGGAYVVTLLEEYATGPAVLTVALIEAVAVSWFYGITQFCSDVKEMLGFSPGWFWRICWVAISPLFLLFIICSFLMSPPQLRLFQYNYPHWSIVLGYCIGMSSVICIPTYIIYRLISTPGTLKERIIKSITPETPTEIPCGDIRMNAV
T1 sequence (Q63380 1-617): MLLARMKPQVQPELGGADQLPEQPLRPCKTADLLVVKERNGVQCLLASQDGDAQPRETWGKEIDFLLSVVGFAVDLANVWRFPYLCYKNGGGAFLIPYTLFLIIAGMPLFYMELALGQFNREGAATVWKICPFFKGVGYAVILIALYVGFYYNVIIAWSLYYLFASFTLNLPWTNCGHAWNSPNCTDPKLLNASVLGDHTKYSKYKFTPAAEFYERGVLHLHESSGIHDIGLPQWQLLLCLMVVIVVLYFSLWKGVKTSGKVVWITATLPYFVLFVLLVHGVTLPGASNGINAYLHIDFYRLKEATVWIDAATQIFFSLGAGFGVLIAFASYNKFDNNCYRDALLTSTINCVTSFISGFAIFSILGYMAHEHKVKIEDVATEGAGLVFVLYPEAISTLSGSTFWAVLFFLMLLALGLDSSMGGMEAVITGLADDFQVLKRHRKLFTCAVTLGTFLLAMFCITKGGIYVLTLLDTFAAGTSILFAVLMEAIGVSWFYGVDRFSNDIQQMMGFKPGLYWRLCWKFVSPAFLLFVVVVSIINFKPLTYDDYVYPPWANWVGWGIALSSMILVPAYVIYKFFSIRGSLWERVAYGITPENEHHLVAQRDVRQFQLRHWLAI

Row | SMILES | IC50 [1, 3] [nM] | inhibition at 1 µM [1] [%] | IC50 [2] [nM] | inhibition at 1 µM [1, 4] [%] | inhibition at 1 µM [2, 3] [%] | IC50 ([2]; rat cerebral cortex synaptosomes, 50 nM ³H-5HT, 37°C for 5 min, read-out: IC₅₀(nM) 5HT) [nM]
1 | CSc1ccc(OC(CCN(C)C)c2ccccc2)cc1 (centres unmarked) [Example 1, N,N-Dimethyl-γ-[4-(methylthio)phenoxy]benzenepropanamine ethanedioate] | > 1000 | 18 | 160 | – | – | –
2 | CNCCC(Oc1ccc(SC)cc1)c1ccccc1 (centres unmarked) [Example 2, N-Methyl-γ-[4-(methylthio)phenoxy]benzenepropanamine ethanedioate] | 704 | – | 48 | – | – | –
3 | CNCCC(Oc1ccc(SC(F)(F)F)cc1)c1ccccc1 (centres unmarked) [Example 3, N-Methyl-γ-{4-[trifluoromethyl)thio]phenoxy}benzenepropanamine ethanedioate] | > 1000 | – | – | 9 | 39 | > 1000
4 | CN(C)CCC(Oc1ccc(S(N)(=O)=O)cc1)c1ccccc1 (centres unmarked) [Example 4, 4-[3-(Dimethylamino)-1-phenylpropoxy]benzenesulfonamide ethanedioate] | > 1000 | 0 | > 1000 | – | 15 | –
5 | CN(C)CCC(Oc1ccc(NS(C)(=O)=O)cc1)c1ccccc1 (centres unmarked) [Example 5, N-{4-[1-Phenyl-3-(dimethylamino)propoxy]phenyl}methanesulfonamide] | > 1000 | – | > 1000 | 15 | 30 | –

Reference: patent EP0336753A1, “Improvements in or relating to propanamine derivatives” (ELI LILLY AND COMPANY, priority 1988, dated 1989)
